Like-named read-outs stand apart in the source and are kept apart here.
Tests used:
[1] = both, human, in vivo
Experimental: (§1) This was a Phase 1, non-randomized, open-label, 2-cohort, cross-over, DDI study in healthy male and female subjects.
(§2) In Cohort 1, a single oral dose 100 mg/25 mg levodopa-carbidopa (Sinemet®) IR was administered alone on Day 1.

[2] = both, human, in vivo; remark: listed apart in the source
[3] = clinical; settings: both, human, in vivo
Experimental: as §1, §2

[4] = both, human, in vivo; remark: listed apart in the source
Experimental: as §1
(§3) In Cohort 2, a single oral dose 100 mg/25 mg levodopa-benserazide (Madopar®) IR was administered alone on Day 1.

[5] = clinical; settings: both, human, in vivo; remark: listed apart in the source
Experimental: as §1, §3

[6] = clinical; settings: both, human, in vivo, geometric mean t1/2
[7] = BIA 28-6156-105: safety and tolerability; settings: 400 mg moxifloxacin
[8] = BIA 28-6156-105: continuous cardiac monitoring, concentration-QTc analysis; settings: 400 mg moxifloxacin, positive control
[9] = BIA 28-6156-107 DDI: effect of single-dose Compound A on single-dose PK of carbidopa-levodopa; settings: both, human, in vivo, oral; for Tmax: Median Tmax, carbidopa
[10] = BIA 28-6156-110 DDI, metformin portion; format: in vivo, human
Experimental: In Cohort 2, a single oral dose 500 mg metformin was administered alone on Day 1. From Day 2 to Day 7, a single daily dose of 60 mg Compound A was administered.

[11] = BIA 28-6156-110 DDI, rosuvastatin portion; format: in vivo, human
Experimental: In Cohort 1, a single oral dose of 10 mg rosuvastatin was administered alone on Day 1. No drug was administered on Day 2. From Day 3 to Day 8, a single daily dose of 60 mg Compound A was administered.

[12] = Parkinson's patients with a GBA-1 mutation; Peterschmitt et al., 2021; cited from earlier work
[13] = 500 mg metformin + Compound A (60 mg daily) vs metformin alone
[14] = 10 mg rosuvastatin + Compound A (60 mg daily) vs rosuvastatin alone

Question: What does the source list for `N[C@@H](Cc1ccc(O)c(O)c1)C(=O)O` [Levodopa, levodopa]?
Answer: AUC(0-t) [1]: 1534 ng·h/mL; Tmax [1]: 1.00 h; AUC0-inf ratio of geometric least squares means (point estimate) [2]: 1.035; AUC0-last ratio of geometric least squares means (point estimate) [2]: 1.048; Cmax ratio of geometric least squares means (point estimate) [2]: 1.061; Median Tmax [2]: 0.5 h; half-life [3]: 1.69 h; t1/2 [4]: 2.26 h; Tmax [5]: 0.77 h; AUC(0-t) ([5]; AUC0-t): 1940 ng·h/mL; half-life [6]: 1.7 h

Question: Which results are given for `COc1c(N2C[C@@H]3CCCN[C@@H]3C2)c(F)cc2c(=O)c(C(=O)O)cn(C3CC3)c12` [Moxifloxacin, moxifloxacin, reference compound]?
Answer: Grade 3 (severe) TEAE considered related [7]: hypersensitivity; effect on ΔΔQTcF (concentration-QTc analysis) [8]: above 5 msec

Question: For `C[C@@](Cc1ccc(O)c(O)c1)(NN)C(=O)O` [carbidopa], which “AUC0-last ratio of geometric least squares means (point estimate)” value [2] is on record?
Answer: 0.909

Question: What about the “Cmax ratio of geometric least squares means (point estimate)” value [2] of the same molecule?
Answer: 1.031

Question: What about the “decrease of systemic exposure” value [2] of the same molecule?
Answer: approximately 9%

Question: And the “increase of maximal exposure” value [2]?
Answer: approximately 3%

Question: What about the Tmax ([9]; carbidopa-levodopa alone) of the same molecule?
Answer: 2.5 h

Question: And the Tmax ([9]; coadministered with Compound A)?
Answer: 2 h

Question: What about the half-life ([9]; geometric mean t1/2, carbidopa, both treatment conditions) of the same molecule?
Answer: 2 to 2.3 h

Question: What does the source list for `CN(C)C(=N)N=C(N)N` [metformin]?
Answer: AUC0-inf ratio of geometric least squares mean, estimate [10, 13]: 0.940; AUC0-t ratio of geometric least squares mean, estimate [10, 13]: 0.938; Cmax ratio of geometric least squares mean, estimate [10, 13]: 0.950; effect of multiple oral doses of Compound A on metformin PK ([10]; single oral dose of metformin): no effect

Question: Which results are given for `CC(C)c1nc(N(C)S(C)(=O)=O)nc(-c2ccc(F)cc2)c1/C=C/[C@@H](O)C[C@@H](O)CC(=O)O` [rosuvastatin]?
Answer: AUC0-inf ratio of geometric least squares mean, estimate [11, 14]: 3.041; AUC0-t ratio of geometric least squares mean, estimate [11, 14]: 3.437; Cmax ratio of geometric least squares mean, estimate [11, 14]: 3.467; increase of rosuvastatin PK ([11]; with Compound A vs alone): about 3 fold; increased maximal exposure to rosuvastatin, Cmax ([11]; with Compound A vs alone): 347%; increased systemic exposure to rosuvastatin, AUC0-inf ([11]; with Compound A vs alone): 304%; increased systemic exposure to rosuvastatin, AUC0-t ([11]; with Compound A vs alone): 344%

Question: With `CC(C)(NC(=O)O[C@@H]1CN2CCC1CC2)c1csc(-c2ccc(F)cc2)n1` [venglustat] as the molecule, how does the “impact on slowing the progression of the condition” value [12] read?
Answer: no impact on slowing the progression of the condition

— patent publication US20260240851A1, “Treatment of Parkinson's Disease in a Patient Using a Glucocerebrosidase Activator” (BIAL - R&D Investments, S.A., priority 2023, published 2026)
